What was measured:
Assay in all cases: KINOMEscan
Type in all cases: binding
Conditions in all cases: read-out: Percent Control
CIT = biological target: T1, CIT (Homo sapiens, UniProt O14578)
T1 construct: purchased Eurofins DiscoverX KINOMEscan (scanMAX 468)

SRC = biological target: T2, SRC (Homo sapiens, UniProt P12931)
T2 construct: purchased Eurofins DiscoverX KINOMEscan (scanMAX 468)

CSNK1A1 = biological target: T3, CSNK1A1 (Homo sapiens, UniProt P48729)
T3 construct: purchased Eurofins DiscoverX KINOMEscan (scanMAX 468)

DCAMKL1 = biological target: T4, DCAMKL1 (Homo sapiens, UniProt O15075)
T4 construct: purchased Eurofins DiscoverX KINOMEscan (scanMAX 468)

PIK3CA(Q546K) = biological target: T5, PIK3CA(Q546K) (Homo sapiens, UniProt P42336, Q546K)
T5 construct: purchased Eurofins DiscoverX KINOMEscan (scanMAX 468)

FLT4 = biological target: T6, FLT4 (Homo sapiens, UniProt P35916)
T6 construct: purchased Eurofins DiscoverX KINOMEscan (scanMAX 468)

FGR = biological target: T7, FGR (Homo sapiens, UniProt P09769)
T7 construct: purchased Eurofins DiscoverX KINOMEscan (scanMAX 468)

FLT3(D835V) = biological target: T8, FLT3(D835V) (Homo sapiens, UniProt P36888, D835V)
T8 construct: purchased Eurofins DiscoverX KINOMEscan (scanMAX 468)

MRCKB = biological target: T9, MRCKB (Homo sapiens, UniProt Q9Y5S2)
T9 construct: purchased Eurofins DiscoverX KINOMEscan (scanMAX 468)

PLK4 = biological target: T10, PLK4 (Homo sapiens, UniProt O00444)
T10 construct: purchased Eurofins DiscoverX KINOMEscan (scanMAX 468)

MTOR = biological target: T11, MTOR (Homo sapiens, UniProt P42345)
T11 construct: purchased Eurofins DiscoverX KINOMEscan (scanMAX 468)

AMPK-alpha2 = biological target: T12, AMPK-alpha2 (Homo sapiens, UniProt P54646)
T12 construct: purchased Eurofins DiscoverX KINOMEscan (scanMAX 468)

ULK3 = biological target: T13, ULK3 (Homo sapiens, UniProt Q6PHR2)
T13 construct: purchased Eurofins DiscoverX KINOMEscan (scanMAX 468)

FER = biological target: T14, FER (Homo sapiens, UniProt P16591)
T14 construct: purchased Eurofins DiscoverX KINOMEscan (scanMAX 468)

CDC2L1 = biological target: T15, CDC2L1 (Homo sapiens, UniProt P21127)
T15 construct: purchased Eurofins DiscoverX KINOMEscan (scanMAX 468)

ABL1-nonphosphorylated = biological target: T16, ABL1-nonphosphorylated (Homo sapiens, UniProt P00519)
T16 construct: purchased Eurofins DiscoverX KINOMEscan (scanMAX 468)

ADCK3 = biological target: T17, ADCK3 (Homo sapiens, UniProt Q8NI60)
T17 construct: purchased Eurofins DiscoverX KINOMEscan (scanMAX 468)

FRK = biological target: T18, FRK (Homo sapiens, UniProt P42685)
T18 construct: purchased Eurofins DiscoverX KINOMEscan (scanMAX 468)

CAMK1D = biological target: T19, CAMK1D (Homo sapiens, UniProt Q8IU85)
T19 construct: purchased Eurofins DiscoverX KINOMEscan (scanMAX 468)

FLT3(D835H) = biological target: T20, FLT3(D835H) (Homo sapiens, UniProt P36888, D835H)
T20 construct: purchased Eurofins DiscoverX KINOMEscan (scanMAX 468)

BRSK1 = biological target: T21, BRSK1 (Homo sapiens, UniProt Q8TDC3)
T21 construct: purchased Eurofins DiscoverX KINOMEscan (scanMAX 468)

JNK1 = biological target: T22, JNK1 (Homo sapiens, UniProt P45983)
T22 construct: purchased Eurofins DiscoverX KINOMEscan (scanMAX 468)

PRKD2 = biological target: T23, PRKD2 (Homo sapiens, UniProt Q9BZL6)
T23 construct: purchased Eurofins DiscoverX KINOMEscan (scanMAX 468)

KIT = biological target: T24, KIT (Homo sapiens, UniProt P10721)
T24 construct: purchased Eurofins DiscoverX KINOMEscan (scanMAX 468)

PFTAIRE2 = biological target: T25, PFTAIRE2 (Homo sapiens, UniProt Q96Q40)
T25 construct: purchased Eurofins DiscoverX KINOMEscan (scanMAX 468)

OSR1 = biological target: T26, OSR1 (Homo sapiens, UniProt O95747)
T26 construct: purchased Eurofins DiscoverX KINOMEscan (scanMAX 468)

[1] = biological target: T27, RPS6KA5(Kin.Dom.2-C-terminal) (Homo sapiens, UniProt O75582)
T27 construct: RPS6KA5(Kin.Dom.2-C-terminal); purchased Eurofins DiscoverX KINOMEscan (scanMAX 468)

PKAC-beta = biological target: T28, PKAC-beta (Homo sapiens, UniProt P22694)
T28 construct: purchased Eurofins DiscoverX KINOMEscan (scanMAX 468)

PRKR = biological target: T29, PRKR (Homo sapiens, UniProt P19525)
T29 construct: purchased Eurofins DiscoverX KINOMEscan (scanMAX 468)

CDK9 = biological target: T30, CDK9 (Homo sapiens, UniProt P50750)
T30 construct: purchased Eurofins DiscoverX KINOMEscan (scanMAX 468)

PRP4 = biological target: T31, PRP4 (Homo sapiens, UniProt Q13523)
T31 construct: purchased Eurofins DiscoverX KINOMEscan (scanMAX 468)

PAK7 = biological target: T32, PAK7 (Homo sapiens, UniProt Q9P286)
T32 construct: purchased Eurofins DiscoverX KINOMEscan (scanMAX 468)

MARK2 = biological target: T33, MARK2 (Homo sapiens, UniProt Q7KZI7)
T33 construct: purchased Eurofins DiscoverX KINOMEscan (scanMAX 468)

NDR1 = biological target: T34, NDR1 (Homo sapiens, UniProt Q15208)
T34 construct: purchased Eurofins DiscoverX KINOMEscan (scanMAX 468)

CHEK2 = biological target: T35, CHEK2 (Homo sapiens, UniProt O96017)
T35 construct: purchased Eurofins DiscoverX KINOMEscan (scanMAX 468)

[2] = biological target: T36, ABL1(F317I)-nonphosphorylated (Homo sapiens, UniProt P00519, F317I)
T36 construct: purchased Eurofins DiscoverX KINOMEscan (scanMAX 468)

NEK3 = biological target: T37, NEK3 (Homo sapiens, UniProt P51956)
T37 construct: purchased Eurofins DiscoverX KINOMEscan (scanMAX 468)

CDKL1 = biological target: T38, CDKL1 (Homo sapiens, UniProt Q00532)
T38 construct: purchased Eurofins DiscoverX KINOMEscan (scanMAX 468)

ALK = biological target: T39, ALK (Homo sapiens, UniProt Q9UM73)
T39 construct: purchased Eurofins DiscoverX KINOMEscan (scanMAX 468)

STK39 = biological target: T40, STK39 (Homo sapiens, UniProt Q9UEW8)
T40 construct: purchased Eurofins DiscoverX KINOMEscan (scanMAX 468)

MKNK1 = biological target: T41, MKNK1 (Homo sapiens, UniProt Q9BUB5)
T41 construct: purchased Eurofins DiscoverX KINOMEscan (scanMAX 468)

MET(M1250T) = biological target: T42, MET(M1250T) (Homo sapiens, UniProt P08581, M1250T)
T42 construct: purchased Eurofins DiscoverX KINOMEscan (scanMAX 468)

KIT(D816V) = biological target: T43, KIT(D816V) (Homo sapiens, UniProt P10721, D816V)
T43 construct: purchased Eurofins DiscoverX KINOMEscan (scanMAX 468)

T21 sequence (Q8TDC3 whole entry): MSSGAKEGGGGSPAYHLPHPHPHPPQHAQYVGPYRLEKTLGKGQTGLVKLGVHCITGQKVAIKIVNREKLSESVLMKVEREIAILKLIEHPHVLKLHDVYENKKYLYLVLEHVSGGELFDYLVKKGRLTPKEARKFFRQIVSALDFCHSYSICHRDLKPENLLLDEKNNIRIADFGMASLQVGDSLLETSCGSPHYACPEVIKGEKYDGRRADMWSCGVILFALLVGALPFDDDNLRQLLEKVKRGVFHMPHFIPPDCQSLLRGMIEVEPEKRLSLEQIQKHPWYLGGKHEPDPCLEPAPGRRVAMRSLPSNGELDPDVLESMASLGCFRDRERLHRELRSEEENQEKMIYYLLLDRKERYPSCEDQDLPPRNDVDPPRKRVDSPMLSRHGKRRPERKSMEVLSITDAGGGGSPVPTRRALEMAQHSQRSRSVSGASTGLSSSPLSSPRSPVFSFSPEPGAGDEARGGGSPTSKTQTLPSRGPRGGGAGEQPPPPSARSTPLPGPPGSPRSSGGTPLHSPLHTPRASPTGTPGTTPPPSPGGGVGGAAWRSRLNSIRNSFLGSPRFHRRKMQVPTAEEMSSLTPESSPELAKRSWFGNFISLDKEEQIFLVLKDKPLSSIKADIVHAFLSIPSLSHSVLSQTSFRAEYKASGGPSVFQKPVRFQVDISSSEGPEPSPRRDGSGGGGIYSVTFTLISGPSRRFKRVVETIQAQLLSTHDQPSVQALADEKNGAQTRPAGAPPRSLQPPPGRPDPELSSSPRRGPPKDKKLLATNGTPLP
T1 sequence (O14578 whole entry): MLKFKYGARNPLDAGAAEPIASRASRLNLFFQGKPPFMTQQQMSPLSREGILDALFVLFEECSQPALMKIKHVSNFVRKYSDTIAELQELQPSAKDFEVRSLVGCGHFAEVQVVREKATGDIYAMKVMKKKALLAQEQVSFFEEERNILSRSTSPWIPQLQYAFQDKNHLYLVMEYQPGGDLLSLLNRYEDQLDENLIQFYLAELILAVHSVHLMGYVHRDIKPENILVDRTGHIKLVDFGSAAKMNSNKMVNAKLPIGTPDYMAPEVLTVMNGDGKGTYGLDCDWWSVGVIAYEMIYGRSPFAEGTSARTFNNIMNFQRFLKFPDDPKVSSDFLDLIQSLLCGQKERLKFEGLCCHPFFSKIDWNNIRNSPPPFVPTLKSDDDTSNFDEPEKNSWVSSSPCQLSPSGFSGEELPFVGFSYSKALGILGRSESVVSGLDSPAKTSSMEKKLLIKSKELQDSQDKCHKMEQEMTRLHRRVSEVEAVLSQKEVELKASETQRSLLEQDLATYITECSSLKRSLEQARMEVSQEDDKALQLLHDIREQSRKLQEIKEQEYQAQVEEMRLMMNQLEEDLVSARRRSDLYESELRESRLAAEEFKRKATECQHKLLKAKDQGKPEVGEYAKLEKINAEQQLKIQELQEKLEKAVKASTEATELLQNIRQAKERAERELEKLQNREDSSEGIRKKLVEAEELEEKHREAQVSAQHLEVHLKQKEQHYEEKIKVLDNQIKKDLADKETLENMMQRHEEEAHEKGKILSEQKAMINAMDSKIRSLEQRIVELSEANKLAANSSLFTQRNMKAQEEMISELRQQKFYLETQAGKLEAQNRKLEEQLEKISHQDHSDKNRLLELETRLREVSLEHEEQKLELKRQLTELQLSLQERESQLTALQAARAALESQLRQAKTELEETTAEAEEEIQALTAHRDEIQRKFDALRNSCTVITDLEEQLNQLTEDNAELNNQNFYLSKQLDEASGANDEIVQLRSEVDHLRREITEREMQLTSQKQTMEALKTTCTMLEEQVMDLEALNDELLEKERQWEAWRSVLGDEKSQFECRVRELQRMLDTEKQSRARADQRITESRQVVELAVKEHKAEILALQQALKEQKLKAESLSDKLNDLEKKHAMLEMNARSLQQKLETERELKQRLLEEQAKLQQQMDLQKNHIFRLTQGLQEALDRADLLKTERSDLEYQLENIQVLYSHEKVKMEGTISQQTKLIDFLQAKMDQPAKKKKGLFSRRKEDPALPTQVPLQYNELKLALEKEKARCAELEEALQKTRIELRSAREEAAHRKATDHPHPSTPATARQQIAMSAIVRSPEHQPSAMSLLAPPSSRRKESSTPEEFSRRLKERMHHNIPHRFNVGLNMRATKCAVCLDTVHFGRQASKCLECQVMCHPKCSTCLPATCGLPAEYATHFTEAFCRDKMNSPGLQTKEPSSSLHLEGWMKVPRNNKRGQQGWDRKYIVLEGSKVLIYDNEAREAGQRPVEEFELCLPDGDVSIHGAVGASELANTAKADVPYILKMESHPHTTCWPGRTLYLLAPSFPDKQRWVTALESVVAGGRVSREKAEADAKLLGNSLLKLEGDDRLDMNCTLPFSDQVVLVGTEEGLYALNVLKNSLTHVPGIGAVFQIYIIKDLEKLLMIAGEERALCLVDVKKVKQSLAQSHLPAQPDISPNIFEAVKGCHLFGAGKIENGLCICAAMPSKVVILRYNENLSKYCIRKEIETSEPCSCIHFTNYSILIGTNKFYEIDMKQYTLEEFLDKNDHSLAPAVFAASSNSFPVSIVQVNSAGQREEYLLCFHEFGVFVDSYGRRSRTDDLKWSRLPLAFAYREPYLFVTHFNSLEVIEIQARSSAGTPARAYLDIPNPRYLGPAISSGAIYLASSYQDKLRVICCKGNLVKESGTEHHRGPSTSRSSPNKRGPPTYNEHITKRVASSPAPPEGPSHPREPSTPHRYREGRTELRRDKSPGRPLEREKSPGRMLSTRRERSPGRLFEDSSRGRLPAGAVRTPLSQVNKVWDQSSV
T27 sequence (O75582 388-802 limits assumed): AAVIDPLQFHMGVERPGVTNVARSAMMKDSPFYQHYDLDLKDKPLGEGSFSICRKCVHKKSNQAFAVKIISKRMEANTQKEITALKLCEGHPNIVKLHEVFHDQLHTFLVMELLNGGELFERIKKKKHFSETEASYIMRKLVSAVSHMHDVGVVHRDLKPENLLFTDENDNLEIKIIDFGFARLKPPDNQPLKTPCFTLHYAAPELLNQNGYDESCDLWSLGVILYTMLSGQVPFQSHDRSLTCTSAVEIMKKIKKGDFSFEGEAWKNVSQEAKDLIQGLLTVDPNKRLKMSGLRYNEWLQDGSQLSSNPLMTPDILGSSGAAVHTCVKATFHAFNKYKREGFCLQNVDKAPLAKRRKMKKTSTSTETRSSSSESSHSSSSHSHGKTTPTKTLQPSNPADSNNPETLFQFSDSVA
T17 sequence (Q8NI60 163-647): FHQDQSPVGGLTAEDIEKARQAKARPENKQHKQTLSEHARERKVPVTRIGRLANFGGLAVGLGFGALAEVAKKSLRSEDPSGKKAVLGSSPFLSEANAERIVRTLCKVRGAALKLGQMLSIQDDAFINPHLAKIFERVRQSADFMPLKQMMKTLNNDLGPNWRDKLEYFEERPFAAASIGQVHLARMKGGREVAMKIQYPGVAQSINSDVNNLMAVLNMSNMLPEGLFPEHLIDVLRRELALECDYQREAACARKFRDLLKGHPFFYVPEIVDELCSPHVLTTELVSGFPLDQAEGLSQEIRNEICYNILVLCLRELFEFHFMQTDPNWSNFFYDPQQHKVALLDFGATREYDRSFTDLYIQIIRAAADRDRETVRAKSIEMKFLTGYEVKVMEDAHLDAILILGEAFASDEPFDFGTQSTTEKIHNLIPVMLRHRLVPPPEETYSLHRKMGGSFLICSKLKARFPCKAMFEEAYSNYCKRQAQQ
T36 sequence (P00519 whole entry F317I): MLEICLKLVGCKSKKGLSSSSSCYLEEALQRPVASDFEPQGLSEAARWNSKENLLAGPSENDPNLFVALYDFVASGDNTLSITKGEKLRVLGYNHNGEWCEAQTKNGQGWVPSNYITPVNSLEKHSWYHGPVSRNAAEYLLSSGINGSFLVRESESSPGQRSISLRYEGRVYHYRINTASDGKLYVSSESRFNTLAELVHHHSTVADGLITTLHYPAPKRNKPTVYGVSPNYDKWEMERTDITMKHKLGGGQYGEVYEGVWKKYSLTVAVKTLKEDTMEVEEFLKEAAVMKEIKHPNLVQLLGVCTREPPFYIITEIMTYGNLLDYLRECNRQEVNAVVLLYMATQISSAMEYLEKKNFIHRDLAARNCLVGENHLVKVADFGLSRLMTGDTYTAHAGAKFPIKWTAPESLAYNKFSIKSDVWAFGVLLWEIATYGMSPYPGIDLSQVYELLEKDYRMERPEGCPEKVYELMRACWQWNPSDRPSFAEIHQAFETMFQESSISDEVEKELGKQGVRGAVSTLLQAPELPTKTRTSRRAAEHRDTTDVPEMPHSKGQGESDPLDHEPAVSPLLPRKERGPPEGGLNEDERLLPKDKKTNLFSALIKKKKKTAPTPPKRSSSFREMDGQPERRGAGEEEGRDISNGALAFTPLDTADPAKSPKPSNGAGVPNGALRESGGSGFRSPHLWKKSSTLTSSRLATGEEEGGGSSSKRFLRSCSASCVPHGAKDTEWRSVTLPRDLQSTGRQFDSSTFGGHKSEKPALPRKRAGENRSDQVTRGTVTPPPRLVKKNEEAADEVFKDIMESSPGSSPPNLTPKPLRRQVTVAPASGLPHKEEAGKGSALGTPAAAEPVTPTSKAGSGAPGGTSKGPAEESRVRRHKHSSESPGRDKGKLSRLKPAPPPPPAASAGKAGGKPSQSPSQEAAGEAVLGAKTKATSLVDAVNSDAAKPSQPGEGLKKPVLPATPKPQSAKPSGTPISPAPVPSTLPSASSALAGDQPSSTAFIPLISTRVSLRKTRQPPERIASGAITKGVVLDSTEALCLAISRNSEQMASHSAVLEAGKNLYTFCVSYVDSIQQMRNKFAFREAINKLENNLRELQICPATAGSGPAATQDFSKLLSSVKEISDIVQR
T16 sequence (P00519 whole entry): as the sequence (P00519 whole entry F317I) above, with I317F counted along it

SMILES: Cc1ccc(-n2cc(COc3cccc4cnc(Nc5cccc(Cl)c5)nc34)nn2)c([N+](=O)[O-])c1 [DB18]
- remaining binding at 1 µM (CIT): 100%
- remaining binding at 1 µM (SRC): 100%
- remaining binding at 1 µM (CSNK1A1): 94%
- remaining binding at 1 µM (DCAMKL1): 88%
- remaining binding at 1 µM (PIK3CA(Q546K)): 96%
- remaining binding at 1 µM (FLT4): 100%
- remaining binding at 1 µM (FGR): 96%
- remaining binding at 1 µM (FLT3(D835V)): 67%
- remaining binding at 1 µM (MRCKB): 94%
- remaining binding at 1 µM (PLK4): 99%
- remaining binding at 1 µM (MTOR): 55%
- remaining binding at 1 µM (AMPK-alpha2): 91%
- remaining binding at 1 µM (ULK3): 100%
- remaining binding at 1 µM (FER): 100%
- remaining binding at 1 µM (CDC2L1): 100%
- remaining binding at 1 µM (ABL1-nonphosphorylated): 85%
- remaining binding at 1 µM (ADCK3): 100%
- remaining binding at 1 µM (FRK): 83%
- remaining binding at 1 µM (CAMK1D): 100%
- remaining binding at 1 µM (FLT3(D835H)): 55%
- remaining binding at 1 µM (BRSK1): 100%
- remaining binding at 1 µM (JNK1): 93%
- remaining binding at 1 µM (PRKD2): 100%
- remaining binding at 1 µM (KIT): 100%
- remaining binding at 1 µM (PFTAIRE2): 95%
- remaining binding at 1 µM (OSR1): 100%
- remaining binding at 1 µM [1]: 100%
- remaining binding at 1 µM (PKAC-beta): 100%
- remaining binding at 1 µM (PRKR): 97%
- remaining binding at 1 µM (CDK9): 100%
- remaining binding at 1 µM (PRP4): 100%
- remaining binding at 1 µM (PAK7): 92%
- remaining binding at 1 µM (MARK2): 94%
- remaining binding at 1 µM (NDR1): 89%
- remaining binding at 1 µM (CHEK2): 100%
- remaining binding at 1 µM [2]: 100%
- remaining binding at 1 µM (NEK3): 83%
- remaining binding at 1 µM (CDKL1): 88%
- remaining binding at 1 µM (ALK): 100%
- remaining binding at 1 µM (STK39): 97%
- remaining binding at 1 µM (MKNK1): 100%
- remaining binding at 1 µM (MET(M1250T)): 88%
- remaining binding at 1 µM (KIT(D816V)): 100%
